Patent US20050009924A1 (priority 2003, published 2005)

Legend:
[1] = system: hepatitis B virus transfected hepatoma cell lines, HepG 2.2.15 cells; experiment: Cytotoxicity assay, 2.2.15 cells; type: cell-based, human; conditions: Homo sapiens, HepG2.2.15; 48 h of drug exposure
[2] = MTT relative viability, PhTERT-SEAP (H1299) cells; conditions: human
[3] = system: rat glioma C6 cells; experiment: Cytotoxicity assay (XTT colorimetric), C6 cells; type: cell-based; conditions: Rattus norvegicus, C6; 48 h of drug exposure
[4] = system: transcriptional activity of hTERT; experiment: SEAP reporter assay of hTERT expression, PhTERT-SEAP (hTERT-BJ1); type: cell-based, human
Summary of the method: (§1)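 SEAP activity, read as rate of 405 nm absorbance rise with 12 mM p-nitrophenyl phosphate in diethanolamine/MgCl2/homoarginine buffer after 65 °C, 10 min heat inactivation, reports hTERT or CMV promoter activity. G418-selected stable H1299 or hTERT-BJ1 reporter lines were exposed to drug for 24 h.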

[5] = system: transcriptional activity of hTERT; experiment: SEAP reporter assay of hTERT expression, PhTERT-SEAP (H1299); type: cell-based, human
Summary of the method: as §1

[6] = MTT relative viability, PhTERT-SEAP (hTERT-BJ1) cells; conditions: human
[7] = system: human hepatoma G2 cells; experiment: Cytotoxicity assay (XTT colorimetric), Hep G2; type: cell-based; conditions: Homo sapiens, HepG2; 48 h of drug exposure
[8] = hTERT-BJ1 cells stably transfected with PhTERT-SEAP reporter
[9] = hTERT-BJ1 cells, stable PhTERT-SEAP reporter clone

CCCNc1cccc2c1C(=O)c1cccc(NCCC)c1C2=O [IVf, 1,5-Bis(propylamino)anthraquinone] gave an IC50 [1] of 1.94 µM, a viability at 48 h, 3.1 µM [2] of 99 ± 7.6% and a viability at 48 h, 31 µM [2] of 98 ± 5.8%. For the same compound, the viability at 48 h, 310 µM [2] was 46 ± 9.5%, the IC50 [3] was 16 ± 0.68 µM and the activity at 3.1 µM ([4]; Homo sapiens, 3.1 μM, hTERT-BJ1, read-out: Relative SEAP activity (%)) was 18 ± 16.7%. The activity at 31 µM ([4]; Homo sapiens, 31 μM, hTERT-BJ1, read-out: Relative SEAP activity (%)) was 19 ± 24.6%, the activity at 310 µM ([4]; Homo sapiens, 310 μM, hTERT-BJ1, read-out: Relative SEAP activity (%)) was -7% and the melting point was 153 to 154 °C. The activity at 3.1 µM ([5]; Homo sapiens, NCI-H1299, 3.1 μM, hTERT-H1299, read-out: Relative SEAP activity (%)) was 101 ± 15.3%, the activity at 31 µM ([5]; Homo sapiens, NCI-H1299, 31 μM, hTERT-H1299, read-out: Relative SEAP activity (%)) was 100 ± 5.6% and the activity at 310 µM ([5]; Homo sapiens, NCI-H1299, 310 μM, hTERT-H1299, read-out: Relative SEAP activity (%)) was 89 ± 8.3%. It also gave a viability at 48 h, 3.1 µM ([6]; hTERT-BJ1 cells) of 97 ± 5.6%, a viability at 48 h, 31 µM ([6]; hTERT-BJ1 cells) of 93 ± 8.9% and a viability at 48 h, 310 µM ([6]; hTERT-BJ1 cells) of 42 ± 8.1%. The IC50 [7] was 1.74 ± 0.14 µM.

With O=C1c2cccc(NCCc3ccccc3)c2C(=O)c2cccc(NCCc3ccccc3)c21 [IVs, 1,5-Bis(phenylethylamino)-anthraquinone] the IC50 [1] was > 20 µM, the viability at 48 h, 2.2 µM [2] was 94 ± 5.2% and the viability at 48 h, 22 µM [2] was 97 ± 3.2%. For the same compound, the viability at 48 h, 223 µM [2] was 77 ± 4.2%, the IC50 [3] was > 20 µM and the activity at 2.2 µM ([4]; Homo sapiens, 2.2 μM, hTERT-BJ1, read-out: Relative SEAP activity (%)) was 115 ± 12.9%. The activity at 22 µM ([4]; Homo sapiens, 22 μM, hTERT-BJ1, read-out: Relative SEAP activity (%)) was 103 ± 12.3%, the activity at 223 µM ([4]; Homo sapiens, 223 μM, hTERT-BJ1, read-out: Relative SEAP activity (%)) was 133 ± 23.8% and the melting point was 205 to 207 °C. The activity at 2.2 µM ([5]; Homo sapiens, NCI-H1299, 2.2 μM, hTERT-H1299, read-out: Relative SEAP activity (%)) was 105 ± 3%, the activity at 22 µM ([5]; Homo sapiens, NCI-H1299, 22 μM, hTERT-H1299, read-out: Relative SEAP activity (%)) was 103 ± 9.5% and the activity at 223 µM ([5]; Homo sapiens, NCI-H1299, 223 μM, hTERT-H1299, read-out: Relative SEAP activity (%)) was 96 ± 2.9%. It also gave a viability at 48 h, 2.2 µM [6] of 97 ± 4%, a viability at 48 h, 22 µM [6] of 92 ± 1% and a viability at 48 h, 223 µM [6] of 81 ± 4.7%. The IC50 [7] was > 20 µM.

For O=C(CCl)Nc1ccc(NC(=O)CCl)c2c1C(=O)c1ccccc1C2=O [VI1, 1,4-Bis(chloroacetamido)-9,10-anthracenedione], the IC50 [1] was > 20 µM, the viability at 48 h, 2.5 µM [2] was 104 ± 5.5% and the viability at 48 h, 25 µM [2] was 96 ± 3.8%. The viability at 48 h, 255 µM [2] was 21 ± 1.5%, the IC50 [3] was > 20 µM and the SEAP/vibility ([4]; 2.5 μM, PhTERT-SEAP (hTERT-BJ1)) was 1.23. For the same compound, the SEAP/vibility ([4]; 25 μM, PhTERT-SEAP (hTERT-BJ1)) was 1.53, the SEAP/vibility ([4]; 255 μM, PhTERT-SEAP (hTERT-BJ1)) was 2.76 and the activity at 2.5 µM ([4]; Homo sapiens, 2.5 μM, PhTERT-SEAP (hTERT-BJ1), read-out: Relative SEAP activity (%)) was 123 ± 16.8%. For the same compound, the activity at 25 µM ([4]; Homo sapiens, 25 μM, PhTERT-SEAP (hTERT-BJ1), read-out: Relative SEAP activity (%)) was 129 ± 17.7%, the activity at 255 µM ([4]; Homo sapiens, 255 μM, PhTERT-SEAP (hTERT-BJ1), read-out: Relative SEAP activity (%)) was 121 ± 10.9% and the melting point was 285 to 287 °C. For the same compound, the SEAP/vibility ([5]; 2.5 μM, PhTERT-SEAP(hTERT-H1299)) was 0.98, the SEAP/vibility ([5]; 25 μM, PhTERT-SEAP(hTERT-H1299)) was 1.14 and the SEAP/vibility ([5]; 255 μM, PhTERT-SEAP(hTERT-H1299)) was 4.66. It also gave an activity at 2.5 µM ([5]; Homo sapiens, NCI-H1299, 2.5 μM, PhTERT-SEAP(hTERT-H1299), read-out: Relative SEAP activity (%)) of 102 ± 5.3%, an activity at 25 µM ([5]; Homo sapiens, NCI-H1299, 25 μM, PhTERT-SEAP(hTERT-H1299), read-out: Relative SEAP activity (%)) of 110 ± 8.8% and an activity at 255 µM ([5]; Homo sapiens, NCI-H1299, 255 μM, PhTERT-SEAP(hTERT-H1299), read-out: Relative SEAP activity (%)) of 97 ± 7.1%. The viability at 48 h, 2.5 µM [6, 8] was 101 ± 2.7%, the viability at 48 h, 25 µM [6, 8] was 84 ± 6.3% and the viability at 48 h, 255 µM [6, 9] was 44 ± 4.7%. For the same compound, the IC50 [7] was > 20 µM.

For O=C(CCCl)Nc1ccc(NC(=O)CCCl)c2c1C(=O)c1ccccc1C2=O [VI7, 1,4-Bis(3-chloropropionamido)-9,10-anthracenedione], the IC50 [1] was > 20 µM, the viability at 48 h, 2.3 µM [2] was 99 ± 6% and the viability at 48 h, 23 µM [2] was 68 ± 2.4%. For the same compound, the viability at 48 h, 238 µM [2] was 30 ± 3.8%, the IC50 [3] was > 20 µM and the SEAP/vibility ([4]; 2.3 μM, PhTERT-SEAP (hTERT-BJ1)) was 0.36. For the same compound, the SEAP/vibility ([4]; 23 μM, PhTERT-SEAP (hTERT-BJ1)) was 0.48, the SEAP/vibility ([4]; 238 μM, PhTERT-SEAP (hTERT-BJ1)) was 0.23 and the activity at 2.3 µM ([4]; Homo sapiens, 2.3 μM, PhTERT-SEAP (hTERT-BJ1), read-out: Relative SEAP activity (%)) was 36 ± 12.1%. The activity at 23 µM ([4]; Homo sapiens, 23 μM, PhTERT-SEAP (hTERT-BJ1), read-out: Relative SEAP activity (%)) was 40 ± 10.8%, the activity at 238 µM ([4]; Homo sapiens, 238 μM, PhTERT-SEAP (hTERT-BJ1), read-out: Relative SEAP activity (%)) was 14 ± 11.8% and the melting point was 230 to 231 °C. For the same compound, the SEAP/vibility ([5]; 2.3 μM, PhTERT-SEAP(hTERT-H1299)) was 0.88, the SEAP/vibility ([5]; 23 μM, PhTERT-SEAP(hTERT-H1299)) was 1.28 and the SEAP/vibility ([5]; 238 μM, PhTERT-SEAP(hTERT-H1299)) was 2.30. For the same compound, the activity at 2.3 µM ([5]; Homo sapiens, NCI-H1299, 2.3 μM, PhTERT-SEAP(hTERT-H1299), read-out: Relative SEAP activity (%)) was 87 ± 2.3%, the activity at 23 µM ([5]; Homo sapiens, NCI-H1299, 23 μM, PhTERT-SEAP(hTERT-H1299), read-out: Relative SEAP activity (%)) was 87 ± 3.1% and the activity at 238 µM ([5]; Homo sapiens, NCI-H1299, 238 μM, PhTERT-SEAP(hTERT-H1299), read-out: Relative SEAP activity (%)) was 68 ± 5.3%. It also gave a viability at 48 h, 2.3 µM [6, 9] of 102 ± 4.1%, a viability at 48 h, 23 µM [6, 9] of 82 ± 8.2% and a viability at 48 h, 238 µM [6, 9] of 60 ± 2.5%. The IC50 [7] was > 20 µM.
